Experimental data reported in patent US20240270751A1, “Pyrazolopyridinone Compounds” (BeiGene Ltd., priority 2021, published 2024).

Assays:
DGKζ = DGKζ (Homo sapiens (Human), UniProt Q13574); test: Biochemical DGK IC50 assay, DGKζ ADP-Glo assay; conditions: 0.5 nM enzyme, 140 μM ATP, 80 μM DAG; read-out: DGKζ ADP-Glo assay IC50
Method in brief: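 ADP formation measured by ADP-Glo luminescence, with test compounds at final 1.55–10000 nM or 23.3–150000 nM. Enzyme: purified full-length human DGKζ from Sf9 insect cells; substrate: DAG/PS micelles in 25 mM HEPES pH 7.0, 0.5 mM EDTA, octyl glucoside.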

DGKα = DGKα (Homo sapiens (Human), UniProt P23743); test: Biochemical DGK IC50 assay, DGKα ADP-Glo assay; conditions: 7.5 nM enzyme, 140 μM ATP, 80 μM DAG
Chain of DGKα (P23743 whole entry): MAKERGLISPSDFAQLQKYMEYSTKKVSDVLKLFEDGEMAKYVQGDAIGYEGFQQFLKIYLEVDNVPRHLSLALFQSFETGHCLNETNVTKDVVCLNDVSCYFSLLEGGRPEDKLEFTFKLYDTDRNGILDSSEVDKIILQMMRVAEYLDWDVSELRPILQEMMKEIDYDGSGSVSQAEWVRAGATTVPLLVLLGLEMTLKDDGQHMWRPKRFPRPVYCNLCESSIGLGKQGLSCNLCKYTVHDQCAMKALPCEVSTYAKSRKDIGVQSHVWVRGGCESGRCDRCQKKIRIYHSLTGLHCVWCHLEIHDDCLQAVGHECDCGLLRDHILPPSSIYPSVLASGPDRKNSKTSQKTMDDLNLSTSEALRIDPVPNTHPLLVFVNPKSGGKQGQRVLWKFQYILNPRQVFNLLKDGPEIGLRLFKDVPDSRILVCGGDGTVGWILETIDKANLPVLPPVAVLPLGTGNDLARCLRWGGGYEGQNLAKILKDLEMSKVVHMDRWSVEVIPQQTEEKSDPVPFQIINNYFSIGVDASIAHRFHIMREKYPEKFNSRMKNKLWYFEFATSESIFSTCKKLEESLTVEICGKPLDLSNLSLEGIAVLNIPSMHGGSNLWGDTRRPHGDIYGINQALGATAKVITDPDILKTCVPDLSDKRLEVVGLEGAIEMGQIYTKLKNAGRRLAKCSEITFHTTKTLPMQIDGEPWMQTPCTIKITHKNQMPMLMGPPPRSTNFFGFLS
Method in brief: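 Compounds at final 1.55˜10000 nM or 23.3˜150000 nM were tested against full-length DGKα. Substrate was lipid micelles of DAG and PS resuspended in 25 mM HEPES pH 7.0 with 0.5 mM EDTA and 160 mM octyl β-D-glucopyranoside. ADP formed was detected by ADP-Glo.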

Chain of DGKζ (Q13574 other isoform, or with tags, fused parts or gaps): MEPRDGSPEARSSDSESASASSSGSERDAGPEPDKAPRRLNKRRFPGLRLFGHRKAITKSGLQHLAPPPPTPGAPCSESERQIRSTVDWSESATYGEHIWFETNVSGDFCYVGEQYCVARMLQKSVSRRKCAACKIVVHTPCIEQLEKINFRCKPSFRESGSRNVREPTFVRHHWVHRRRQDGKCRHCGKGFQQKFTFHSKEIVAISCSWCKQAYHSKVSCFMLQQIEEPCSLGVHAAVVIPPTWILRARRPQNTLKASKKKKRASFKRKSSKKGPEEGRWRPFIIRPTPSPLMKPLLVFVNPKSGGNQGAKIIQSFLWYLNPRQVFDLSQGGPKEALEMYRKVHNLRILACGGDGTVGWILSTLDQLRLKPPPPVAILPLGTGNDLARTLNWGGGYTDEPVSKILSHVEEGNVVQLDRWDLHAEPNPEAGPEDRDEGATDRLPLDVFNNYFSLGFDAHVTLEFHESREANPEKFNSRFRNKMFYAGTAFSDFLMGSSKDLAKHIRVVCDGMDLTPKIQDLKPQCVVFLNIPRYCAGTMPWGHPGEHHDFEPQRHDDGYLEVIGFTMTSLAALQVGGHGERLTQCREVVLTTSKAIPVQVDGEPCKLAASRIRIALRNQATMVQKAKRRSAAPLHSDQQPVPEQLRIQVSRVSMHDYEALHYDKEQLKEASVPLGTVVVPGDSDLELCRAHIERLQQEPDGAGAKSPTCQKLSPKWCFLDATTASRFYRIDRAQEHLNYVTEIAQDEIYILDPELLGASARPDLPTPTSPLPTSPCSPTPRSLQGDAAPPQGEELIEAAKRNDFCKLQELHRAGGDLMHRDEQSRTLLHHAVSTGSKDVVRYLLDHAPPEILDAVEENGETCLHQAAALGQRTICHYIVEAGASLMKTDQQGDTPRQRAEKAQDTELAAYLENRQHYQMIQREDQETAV

With C[C@@H]1CN(c2cc(=O)n(C)c3cn(CC#N)nc23)[C@@H](C)CN1[C@@H](C)c1ccc2c(c1)OC(C)(C)CO2 [Compound A46b] the IC50 (DGKζ) was 21 nM and the IC50 (DGKα) was 2.57 µM.
With CC[C@H]1CN(C(C)c2ccc(CN3CCC(F)(F)CC3)cc2)[C@H](CC)CN1c1cc(=O)n(C)c2cn(CC#N)nc12 (some centres unmarked) [Compound A344] the IC50 (DGKζ) was 198 nM and the IC50 (DGKα) was 0.108 µM.
In the case of [2H]C([2H])([2H])c1cnc2ccc(C(C)N3C[C@H](C)N(c4cc(=O)n(C)c5cn(CC#N)nc45)C[C@H]3C)cc2n1 (single isomer, unassigned) [Compound A313b], the IC50 (DGKζ) is reported as 51 nM and the IC50 (DGKα) is reported as 61.6 µM.
CC[C@H]1CN(C(C)c2ccccc2C(F)(F)F)[C@H](CC)CN1c1cc(=O)n(C)c2cn(CC#N)nc12 (single isomer, unassigned) [Compound A197a] showed an IC50 (DGKζ) of 2050 nM and an IC50 (DGKα) of over 10 µM.
Molecule CC[C@@H]1CN(c2cc(=O)n(C)c3cn(CC)nc23)[C@@H](C)CN1C(C)c1ccc2nccnc2c1 (single isomer, unassigned) [Compound A221a] has an IC50 (DGKζ) of 216 nM and an IC50 (DGKα) of 1.09 µM.
CC(c1ccc(Cl)cc1C(F)(F)F)N1C[C@H](C)N(c2cc(=O)n(C)c3cn(CC#N)nc23)C[C@H]1C (some centres unmarked) [Compound A251] was tested, and the IC50 (DGKζ) was 3270 nM and the IC50 (DGKα) was over 10 µM.
Work on CC[C@H]1CN(C(c2ccc(F)cc2)c2ccc(F)cc2OC)[C@H](CC)CN1c1cc(=O)n(C)c2cn(CC#N)nc12 (some centres unmarked) [Compound A53] yielded an IC50 (DGKζ) of 7.8 nM and an IC50 (DGKα) of 1.2 µM.
With CC[C@H]1CN(C(C)c2ccc(CN3CCOC(C)(C)C3)cc2)[C@H](CC)CN1c1cc(=O)n(C)c2cn(CC#N)nc12 (some centres unmarked) [Compound A342] the IC50 (DGKζ) was 353 nM and the IC50 (DGKα) was 0.229 µM.
In the case of C[C@@H]1CN(c2cc(=O)n(C)c3cn(CC#N)nc23)[C@@H](C)CN1[C@@H](C)c1ccc2nccnc2c1 [Compound A2a, 2-(7-((2S,5R)-2,5-dimethyl-4-((S)-1-(quinoxalin-6-yl)ethyl)piperazin-1-yl)-4-methyl-5-oxo-4,5-dihydro-2H-pyrazolo[4,3-b]pyridin-2-yl)acetonitrile], the IC50 (DGKζ) is reported as 52 nM and the IC50 (DGKα) is reported as 4.8 µM.
C[C@@H]1CN(c2cc(=O)n(C)c3c(C(F)(F)F)n(CC#N)nc23)[C@@H](C)CN1[C@@H](C)c1ccc2nccnc2c1 (single isomer, unassigned) [Compound A243, 2-(7-((2S,5R)-2,5-dimethyl-4-((S)-1-(quinoxalin-6-yl)ethyl)piperazin-1-yl)-4-methyl-5-oxo-3-(trifluoromethyl)-4,5-dihydro-2H-pyrazolo[4,3-b]pyridin-2-yl)acetonitrile or 2-(7-((2S,5R)-2,5-dimethyl-4-((R)-1-(quinoxalin-6-yl)ethyl)piperazin-1-yl)-4-methyl-5-oxo-3-(trifluoromethyl)-4,5-dihydro-2H-pyrazolo[4,3-b]pyridin-2-yl)acetonitrile] gave an IC50 (DGKζ) of 1350 nM and an IC50 (DGKα) of over 10 µM.
Molecule CC[C@H]1CN(C(C)c2ccc(F)cc2OC)[C@H](CC)CN1c1cc(=O)n(C)c2cn(CC#N)nc12 (single isomer, unassigned) [Compound A71b] has an IC50 (DGKζ) of 130 nM and an IC50 (DGKα) of 40 µM.
CC#CCn1cc2c(n1)c(N1C[C@@H](C)N(C(C)c3ccc4c(c3)OC(F)(F)O4)C[C@@H]1C)cc(=O)n2C (some centres unmarked) [Compound A391] showed an IC50 (DGKζ) of 1650 nM and an IC50 (DGKα) of 1.18 µM.
In the case of CC(c1cnc2c(c1)OCCO2)N1C[C@H](C)N(c2cc(=O)n(C)c3cn(CC#N)nc23)C[C@H]1C (some centres unmarked) [Compound A250], the IC50 (DGKζ) is reported as 3010 nM and the IC50 (DGKα) is reported as over 10 µM.
CC(c1ccc2nccnc2c1)N1C[C@H](C)N(c2cc(=O)n(C)c3cn(C(C)C#N)nc23)C[C@H]1C (some centres unmarked) [Compound A8] gave an IC50 (DGKζ) of 570 nM and an IC50 (DGKα) of 31 µM.
With CC#CCn1cc2c(n1)c(N1C[C@@H](CC)N(C(C)c3ccc(F)cc3C(F)(F)F)C[C@@H]1CC)cc(=O)n2C (single isomer, unassigned) [Compound A238b] the IC50 (DGKζ) was 256 nM and the IC50 (DGKα) was 1.24 µM.
Molecule CC(c1ccc2ncc(C3CC3)nc2c1)N1C[C@H](C)N(c2cc(=O)n(C)c3cn(CC#N)nc23)C[C@H]1C (stereo partly drawn) [Compound A310, 2-(7-((2S,5R)-4-(1-(3-cyclopropylquinoxalin-6-yl)ethyl)-2,5-dimethylpiperazin-1-yl)-4-methyl-5-oxo-4,5-dihydro-2H-pyrazolo[4,3-b]pyridin-2-yl)acetonitrile] has an IC50 (DGKζ) of 127 nM and an IC50 (DGKα) of 94.7 µM.
CC(c1ccc2nccnc2c1)N1C[C@H](C(F)F)N(c2cc(=O)n(C)c3cn(CC#N)nc23)C[C@H]1C (stereo partly drawn) [Compound A261, 2-(7-((2R,5R)-2-(difluoromethyl)-5-methyl-4-(1-(quinoxalin-6-yl)ethyl)piperazin-1-yl)-4-methyl-5-oxo-4,5-dihydro-2H-pyrazolo[4,3-b]pyridin-2-yl)acetonitrile] showed an IC50 (DGKζ) of 2350 nM and an IC50 (DGKα) of over 10 µM.
In the case of CC[C@@H]1CN(c2cc(=O)[nH]c3c(C)n(CC#N)nc23)[C@@H](C)CN1C(C)c1ccc2nccnc2c1 (some centres unmarked) [Compound A264], the IC50 (DGKζ) is reported as 215 nM and the IC50 (DGKα) is reported as over 10 µM.
CC[C@H]1CN(C(C)c2cnc(OC(C)C)cc2F)[C@H](CC)CN1c1cc(=O)n(C)c2cn(CC#N)nc12 (some centres unmarked) [Compound A358] was tested, and the IC50 (DGKζ) was 373 nM and the IC50 (DGKα) was 5.83 µM.
With CC[C@@H]1CN(c2cc(=O)n(C)c3cn(CC)nc23)[C@@H](C)CN1C(C)c1ccc2nccnc2c1 (single isomer, unassigned) [Compound A221b] the IC50 (DGKζ) was over 10000 nM and the IC50 (DGKα) was 2.37 µM.
Molecule CC[C@H]1CN(C(C)c2ccc(C(C)(C)C#N)cc2F)[C@H](CC)CN1c1cc(=O)n(C)c2cn(CC#N)nc12 (stereo partly drawn) [Compound A345, 2-(4-(1-((2R,5S)-4-(2-(cyanomethyl)-4-methyl-5-oxo-4,5-dihydro-2H-pyrazolo[4,3-b]pyridin-7-yl)-2,5-diethylpiperazin-1-yl)ethyl)-3-fluorophenyl)-2-methylpropanenitrile] has an IC50 (DGKζ) of 205 nM and an IC50 (DGKα) of 0.852 µM.
CC(c1ccccc1)N1C[C@H](C)N(c2cc(=O)n(C)c3cn(CC#N)nc23)C[C@H]1C (some centres unmarked) [Compound A37] was tested, and the IC50 (DGKζ) was 5400 nM and the IC50 (DGKα) was 0.14 µM.
In the case of CC[C@H]1CN(C(C)c2ccc(C(F)(F)F)cn2)[C@H](CC)CN1c1cc(=O)n(C)c2cn(CC#N)nc12 (single isomer, unassigned) [Compound A348a], the IC50 (DGKζ) is reported as 3880 nM and the IC50 (DGKα) is reported as 0.177 µM.
CC[C@H]1CN(C(C)c2cc3ccccc3n2CC)[C@H](CC)CN1c1cc(=O)n(C)c2cn(CC#N)nc12 (some centres unmarked) [Compound A176] showed an IC50 (DGKζ) of 93 nM and an IC50 (DGKα) of 5.67 µM.
COC(C)c1cc(F)ccc1C(C)N1C[C@H](C)N(c2cc(=O)n(C)c3cn(CC#N)nc23)C[C@H]1C (single isomer, unassigned) [Compound A286b] showed an IC50 (DGKζ) of 17 nM and an IC50 (DGKα) of 51.5 µM.
Work on CC(c1ccc2c(c1)OCCO2)N1C[C@H](C)N(c2cc(=O)n(C)c3cn(CC#N)nc23)C[C@H]1C (single isomer, unassigned) [Compound A43b] yielded an IC50 (DGKζ) of 50 nM and an IC50 (DGKα) of 6.57 µM.
With CC[C@H]1CN(C(C)c2c(C)cnn2CC)[C@H](CC)CN1c1cc(=O)n(C)c2cn(CC#N)nc12 (single isomer, unassigned) [Compound A227a] the IC50 (DGKζ) was over 10000 nM and the IC50 (DGKα) was over 10 µM.
With CC[C@H]1CN(C(C)c2ccc3nccnc3c2)[C@H](CC)CN1c1cc(=O)n(CC2CC2)c2cn(CC#N)nc12 (some centres unmarked) [Compound A167] the IC50 (DGKζ) was 1020 nM and the IC50 (DGKα) was over 10 µM.
CC[C@H]1CN(C(C)c2ccc(F)cc2OC)[C@H](CC)CN1c1cc(=O)n(CCO)c2cn(CC#N)nc12 (single isomer, unassigned) [Compound A153b] showed an IC50 (DGKζ) of 545 nM and an IC50 (DGKα) of over 10 µM.
With CC[C@H]1CN(C(C)c2cnc(C)c(C)n2)[C@H](CC)CN1c1cc(=O)n(C)c2cn(CC#N)nc12 (single isomer, unassigned) [Compound A355b] the IC50 (DGKζ) was 176 nM and the IC50 (DGKα) was 2.15 µM.
CC(c1ccc2ncc(C(F)(F)F)nc2c1)N1C[C@H](C)N(c2cc(=O)n(C)c3cn(CC#N)nc23)C[C@H]1C (stereo partly drawn) [Compound A314, 2-(7-((2S,5R)-2,5-dimethyl-4-(1-(3-(trifluoromethyl)quinoxalin-6-yl)ethyl)piperazin-1-yl)-4-methyl-5-oxo-4,5-dihydro-2H-pyrazolo[4,3-b]pyridin-2-yl)acetonitrile] was tested, and the IC50 (DGKζ) was 689 nM and the IC50 (DGKα) was 84.3 µM.
For CC(c1ccc2ncc(C(C)(F)F)nc2c1)N1C[C@H](C)N(c2cc(=O)n(C)c3cn(CC#N)nc23)C[C@H]1C (stereo partly drawn) [Compound A312, 2-(7-((2S,5R)-4-(1-(3-(1,1-difluoroethyl)quinoxalin-6-yl)ethyl)-2,5-dimethylpiperazin-1-yl)-4-methyl-5-oxo-4,5-dihydro-2H-pyrazolo[4,3-b]pyridin-2-yl)acetonitrile], the IC50 (DGKζ) was 238 nM and the IC50 (DGKα) was 66 µM.
C=CCn1cc2c(n1)c(N1C[C@@H](C)N([C@@H](C)c3ccc4ncc(C)nc4c3)C[C@@H]1C)cc(=O)n2C [Compound A301, 2-allyl-7-((2S,5R)-2,5-dimethyl-4-((S)-1-(3-methylquinoxalin-6-yl)ethyl)piperazin-1-yl)-4-methyl-2,4-dihydro-5H-pyrazolo[4,3-b]pyridin-5-one] was tested, and the IC50 (DGKζ) was 131 nM and the IC50 (DGKα) was over 150 µM.
In the case of CC[C@H]1CN(C(C)c2cccc3c2OC(F)(F)O3)[C@H](CC)CN1c1cc(=O)n(C)c2cn(CC#N)nc12 (some centres unmarked) [Compound A66], the IC50 (DGKζ) is reported as 409 nM and the IC50 (DGKα) is reported as 9.84 µM.
With CC[C@H]1CN(C(C)c2ccc(C(F)(F)F)cn2)[C@H](CC)CN1c1cc(=O)n(C)c2cn(CC#N)nc12 (single isomer, unassigned) [Compound A348b] the IC50 (DGKζ) was 138 nM and the IC50 (DGKα) was 0.009 µM.
Molecule CC[C@H]1CN(C(C)c2ccccn2)[C@H](CC)CN1c1cc(=O)n(C)c2cn(CC#N)nc12 (some centres unmarked) [Compound A90] has an IC50 (DGKζ) of 1900 nM and an IC50 (DGKα) of 0.013 µM.
With COCc1ccc(C(C)N2C[C@H](C)N(c3cc(=O)n(C)c4cn(CC#N)nc34)C[C@H]2C)cc1 (some centres unmarked) [Compound A31] the IC50 (DGKζ) was 8100 nM and the IC50 (DGKα) was 1.2 µM.
